Counter-ions that a name gives are not always drawn. Like-named read-outs stand apart in the source and are kept apart here.
What was measured:
[1] = molecular target: T1, soluble CI‐M6P/IGF2R:D1–D15 (Homo sapiens, UniProt P11717); assay: Reverse saturation fluorescence polarization binding of fluorescent glycopeptide 1
T1 construct: domains 1–15 (residues AA 41–2304); gp67 signal peptide (X1) (N, cleaved yes); 6‐His‐tag (C); PreScission protease cutting site (C); TwinStrep‐tag (C); made in house; host or cells: Spodoptera frugiperda Sf9 insect cells (baculovirus, pFastBac-1), secreted into the medium
From the text: The gene encoding human CI‐M6P/IGF2R domains 1–15 (residues AA 41–2304) fused to an N‐terminal gp67 signal peptide ([…]) and C‐terminal 6‐His‐tag, PreScission protease cutting site, and TwinStrep‐tag in pFastBac‐1 vector was used for bacmid generation in DH10Bac E. coli (Thermo Fisher Scientific). The recombinant bacmid DNA was purified using alkaline extraction and transfected using ExpiFectamine‐Sf (Thermo Fisher Scientific) into Spodoptera frugiperda 9 (Sf9) cells. […] Expression of the recombinant protein was assessed by SDS‐PAGE and Western Blot analysis. […]
We employed a fluorescence polarization (FP) binding assay to assess the binding affinity of the tested compounds for a soluble CI‐M6P/IGF2R ectodomain construct. […] Upon binding to the CI‐M6P/IGF2R protein, the probe's rotation slows, resulting in increased fluorescence polarization. This shift is quantified as anisotropy (or polarization), which reflects the ratio of bound to free probe, enabling binding affinity estimation without phase separation.^[ [26] ^] […]
We first analyzed the interaction between soluble CI‐M6P/IGF2R:D1–D15 and the fluorescent probe (glycopeptide 1) using a reverse saturation binding assay in solution. […]

[2] = molecular target: T2, CI‐M6P/IGF2R:D1–D15 (Homo sapiens, UniProt P11717); assay: Competitive fluorescence polarization assay (displacement of fluorescent glycopeptide 1); format: binding; conditions: for Potency (relative binding potency): (IC50 of compound 2 / IC50 of compound) × 100
T2 construct: domains 1–15 (residues AA 41–2304); gp67 signal peptide (X1) (N, cleaved yes); 6‐His‐tag (C); PreScission protease cutting site (C); TwinStrep‐tag (C); made in house; host or cells: Spodoptera frugiperda Sf9 insect cells (baculovirus, pFastBac-1), secreted into the medium
Description: The recombinant bacmid DNA was purified using alkaline extraction and transfected using ExpiFectamine‐Sf (Thermo Fisher Scientific) into Spodoptera frugiperda 9 (Sf9) cells. The first generation of recombinant baculovirus was harvested after 5 days post‐transfection and amplified in subsequent shaking cultures of Sf9 in SF‐900 II serum‐free media (Thermo Fisher Scientific) at 27 °C and 130 rpm at a density of 2 × 10^6 cells/ml. Media containing viral particles were harvested after four days, and the amplification step was repeated to obtain high‐titer P2 stock, which was then used in large‐scale expression. […] The column was washed with a buffer containing 100 mM Tris‐HCl and 150 mM NaCl (pH 8.0), and the recombinant protein was eluted using the same buffer supplemented with 50 mM biotin. Expression of the recombinant protein was assessed by SDS‐PAGE and Western Blot analysis. Folding was checked by a competitive binding assay with radioactively labeled IGF2 (a natural ligand of IGF2R).^[ [25] ^]
We employed a fluorescence polarization (FP) binding assay to assess the binding affinity of the tested compounds for a soluble CI‐M6P/IGF2R ectodomain construct. This method monitors the rotational speed of a fluorescent probe—specifically, a fluorescein‐labeled glycopeptide 1. Upon binding to the CI‐M6P/IGF2R protein, the probe's rotation slows, resulting in increased fluorescence polarization. This shift is quantified as anisotropy (or polarization), which reflects the ratio of bound to free probe, enabling binding affinity estimation without phase separation.^[ [26] ^]
In all experiments, the compounds were dissolved in water and serially diluted with water in Echo Qualified 384‐Well PP Source Microplates using a BRAVO pipetting station (Agilent, USA). The compounds were then pre‐spotted onto black 384‐well low‐volume round‐bottom plates (Corning, USA) using an Echo 650 liquid handler (Beckman Coulter, USA) to obtain the desired final compound concentrations. Subsequently, 5 µL of the prepared mixture (soluble receptor and glycopeptide 1 in 100 mM Tris/HCl, 150 mM NaCl, pH 8.0) was added using either a MANTIS Liquid Dispenser (Formulatrix, Dubai, United Arab Emirates) or a Clicktip pipette (Thermo Fischer Scientific, USA). The plate was sealed with Duck Tape (Hampton Research USA) to prevent evaporation, shaken for 10 s at 800 rpm, centrifuged to remove bubbles, and then incubated at room temperature.
Next, competitive FP experiments were performed using a procedure analogous to previously reported methods.^[ [27] ^] […] Subsequently, 5 µL of a mixture containing CI‐M6P/IGF2R:D1–D15 (final concentration: 300 nM) and fluorescent glycopeptide 1 (final concentration: 10 nM) was added using a MANTIS Liquid Dispenser. The anisotropy data from the plate reader were plotted against the compound concentration using GraphPad Prism 8.0. A nonlinear regression analysis, “log [Inhibitor] versus response – Variable slope (four parameters),” was used to calculate the IC₅₀ values (the concentration at which half‐maximal inhibition is achieved) for each competition experiment. Relative binding affinities were calculated as (IC₅₀ of compound 2 / IC₅₀ of each compound) × 100 (%).

[3] = molecular target: CI‐M6P/IGF2R; set-up: method as in PMID 3003148; conditions: monomeric M6P; cited from earlier work
[4] = receptor 300 nM, glycopeptide 1 10 nM, pH 8.0, mean of two independent measurements in triplicate ± S.D., read-out: IC50
[5] = receptor 300 nM, glycopeptide 1 10 nM, pH 8.0, mean of two independent measurements in triplicate ± S.D.

Compound	Potency (relative binding potency) [2]	IC50 [2, 4]	further results
NCCCC[C@H](NC(=O)[C@H](Cc1cn(CCO[C@H]2O[C@H](CCP(=O)(O)O)[C@@H](O)[C@H](O)[C@@H]2O)nn1)NC(=O)[C@H](CO)NC(=O)[C@H](Cc1cn(CCO[C@H]2O[C@H](CCP(=O)(O)O)[C@@H](O)[C@H](O)[C@@H]2O)nn1)NC(=O)[C@H](CCCCN)NC(=O)[C@H](Cc1cn(CCO[C@H]2O[C@H](CCP(=O)(O)O)[C@@H](O)[C@H](O)[C@@H]2O)nn1)NC(=O)[C@H](CO)NC(=O)[C@H](Cc1cn(CCO[C@H]2O[C@H](CCP(=O)(O)O)[C@@H](O)[C@H](O)[C@@H]2O)nn1)NC(=O)[C@H](CCCCN)NC(=O)[C@H](Cc1cn(CCO[C@H]2O[C@H](CCP(=O)(O)O)[C@@H](O)[C@H](O)[C@@H]2O)nn1)NC(=O)[C@H](CO)NC(=O)CNC(=O)c1ccc2c(c1)C(=O)OC21c2ccc(O)cc2Oc2cc(O)ccc21)C(N)=O [Compound 1]			Kd ([1]; glycopeptide 1 10 nM titrated with receptor 0-1500 nM, pH 8.0, read-out: dissociation constant (Kd)): ~400 nM; cooperativity coefficient (n), Hill koef ([1]; specific binding with Hill slope, glycopeptide 1 10 nM): −2.35
CC(=O)N[C@@H](Cc1c[nH]c2ccccc12)C(=O)N[C@@H](Cc1ccccc1)C(=O)NCC(=O)N[C@@H](CO)C(=O)N[C@@H](Cc1cn(CCO[C@H]2O[C@H](CCP(=O)(O)O)[C@@H](O)[C@H](O)[C@@H]2O)nn1)C(=O)N[C@@H](CCCCN)C(=O)N[C@@H](Cc1cn(CCO[C@H]2O[C@H](CCP(=O)(O)O)[C@@H](O)[C@H](O)[C@@H]2O)nn1)C(=O)N[C@@H](CO)C(=O)N[C@@H](Cc1cn(CCO[C@H]2O[C@H](CCP(=O)(O)O)[C@@H](O)[C@H](O)[C@@H]2O)nn1)C(=O)N[C@@H](CCCCN)C(=O)N[C@@H](Cc1cn(CCO[C@H]2O[C@H](CCP(=O)(O)O)[C@@H](O)[C@H](O)[C@@H]2O)nn1)C(=O)N[C@@H](CO)C(=O)N[C@@H](Cc1cn(CCO[C@H]2O[C@H](CCP(=O)(O)O)[C@@H](O)[C@H](O)[C@@H]2O)nn1)C(=O)N[C@@H](CCCCN)C(N)=O [Compound 2]	100.0%	480 ± 110 nM	
NCCCC[C@H](NC(=O)[C@H](Cc1cn(CCO[C@H]2O[C@H](CCP(=O)(O)O)[C@@H](O)[C@H](O)[C@@H]2O)nn1)NC(=O)[C@H](Cc1c[nH]c2ccccc12)NC(=O)[C@@H](N)Cc1cn(CCO[C@H]2O[C@H](CCP(=O)(O)O)[C@@H](O)[C@H](O)[C@@H]2O)nn1)C(=O)N[C@@H](Cc1cn(CCO[C@H]2O[C@H](CCP(=O)(O)O)[C@@H](O)[C@H](O)[C@@H]2O)nn1)C(N)=O [Compound 3]			IC50 [2]: 490 ± 40 nM
CC(=O)NCCCC[C@H](NC(=O)[C@H](Cc1cn(CCO[C@H]2O[C@H](CCP(=O)(O)O)[C@@H](O)[C@H](O)[C@@H]2O)nn1)NC(=O)[C@H](Cc1c[nH]c2ccccc12)NC(=O)[C@H](Cc1cn(CCO[C@H]2O[C@H](CCP(=O)(O)O)[C@@H](O)[C@H](O)[C@@H]2O)nn1)NC(C)=O)C(=O)N[C@@H](Cc1cn(CCO[C@H]2O[C@H](CCP(=O)(O)O)[C@@H](O)[C@H](O)[C@@H]2O)nn1)C(N)=O [Compound 4]			IC50 [2]: 490 ± 70 nM
NC(=O)[C@H](Cc1cn(CCO[C@H]2O[C@H](CCP(=O)(O)O)[C@@H](O)[C@H](O)[C@@H]2O)nn1)NC(=O)[C@H](Cc1c[nH]c2ccccc12)NC(=O)[C@@H](N)Cc1cn(CCO[C@H]2O[C@H](CCP(=O)(O)O)[C@@H](O)[C@H](O)[C@@H]2O)nn1 [Compound 5]		480 ± 100 nM	
CC(=O)N[C@@H](Cc1cn(CCO[C@H]2O[C@H](CCP(=O)(O)O)[C@@H](O)[C@H](O)[C@@H]2O)nn1)C(=O)N[C@@H](Cc1c[nH]c2ccccc12)C(=O)N[C@@H](Cc1cn(CCO[C@H]2O[C@H](CCP(=O)(O)O)[C@@H](O)[C@H](O)[C@@H]2O)nn1)C(N)=O [Compound 6]		660 ± 900 nM	
CO[C@H]1O[C@H](CCP(=O)(O)O)[C@@H](O)[C@H](O)[C@@H]1O [Compound 8, Methyl 6-deoxy-6-phosphonomethyl-α-D-mannopyranoside bis(triethylammonium) salt]	4.1%		IC50 ([2]; values used for comparison with calculations, read-out: experimental IC50 (as listed in Tables S1-S3)): 11500 nM
CO[C@H]1O[C@H](CP(=O)(O)O)[C@@H](O)[C@H](O)[C@@H]1O [Compound 9]	0.35%	137000 ± 2000 nM	
CO[C@H]1O[C@H](CCc2nnn[nH]2)[C@@H](O)[C@H](O)[C@@H]1O [Compound 10]			IC50 [2, 5]: did not bind and unmeasurably low and n.b.
CO[C@H]1O[C@H](CCC(=O)O)[C@@H](O)[C@H](O)[C@@H]1O [Compound 11]	0.85%	56000 ± 12000 nM	fold reduction in binding affinity compared to native M6P 7 [2]: fivefold
CO[C@H]1O[C@H](Cc2nnn[nH]2)[C@@H](O)[C@H](O)[C@@H]1O [Compound 12]			IC50 [2, 5]: did not bind and unmeasurably low and n.b.
O=P(O)(O)CC[C@H]1O[C@H](C/C=C/c2ccc(O)cc2)[C@@H](O)[C@@H](O)[C@@H]1O [Compound 13]	11.3%	4200 ± 20 nM	fold increase in binding affinity compared to compound 8 [2]: almost threefold
mannose‐6‐phosphate [Compound 7]			Kd [3]: ~7000 nM
